Measured values published in patent US5955426A, “Cyclic hexapeptide somatostatin analogues” (Diatide, Inc., priority 1997, dated 1999).
Square brackets hold non-standard residues; d marks the D form. Peptide text beside a SMILES is read from it. * marks the point of attachment. X11 = NCCCC[C@H](NC(=O)C*)C(=O)NCCCC[C@H](N)C(=O)NCC(=O)N[C@@H](CS)C(N)=O; X13 = CC(=O)NCSC[C@H](NC(=O)CNC(=O)[C@H](CSCNC(C)=O)NC(=O)C*)C(N)=O; X7 = NC(=O)[C@H](CS)NC(=O)CNC(=O)[C@@H](N)CCCCNC(=O)C*; X5 = O=C(CNC(=O)[C@H](CS)NC(=O)C*)N[C@@H](CS)C(=O)O; X6 = NC(=O)[C@H](CS)NC(=O)CNC(=O)[C@H](CS)NC(=O)C*; X12 = NC(=O)[C@H](CS)NC(=O)CNC(=O)CNC(=O)C*; NMeF = CN[C@@H](Cc1ccccc1)C(=O)O; hCys = N[C@@H](CCS)C(=O)O

Molecular target: T1, somatostatin receptor (Rattus norvegicus, UniProt P30680)
T1 construct: endogenous in cells; host or cells: AR42J rat pancreatic tumor cell line (membrane preparation)
Test: Inhibition of binding of (125I-Tyr11)somatostatin-14 to AR42J rat pancreatic tumor cell membranes
Conditions: 0.5 nM (125I-Tyr11)somatostatin-14, 25 min at 30° C., read-out: K1 (inhibition constant)
Protocol: Inhibition of Binding of (^125 I-Tyr^11)somatostatin-14 to AR42J Rat Pancreatic Tumor Cell Membranes
The rat pancreatic tumor cell line AR42J which expresses the somatostatin receptor was cultured in Dulbecco's minimal essential media (DMEM) supplemented with 10% fetal bovine serum (FBS) and 8 mM glutamine in a humidified 5% CO2 atmosphere at 37° C. in T-flasks. Harvested cells were homogenized in cold 50 mM Tris-HCl buffer (pH 7.4) and the homogenate then centrifuged at 39,000 g for 10 min at 4° C. Pellets were washed once with buffer and then resuspended in an ice-cold solution of 10 mM Tris-HCl (pH 7.4). Equal aliquots of this cell membrane preparation were incubated with (^125 I-Tyr^11)somatostatin-14 (at a final concentration of 0.5 nM and 750,000 cpm/mL, at a specific activity of 2000 Ci/mmol, Amersham, Arlington Heights, Ill.) and peptide at a final concentration of from 10^-11 M to 10^-6 M in a solution of 50 mM HEPES (pH 7.4) containing 1% bovine serum albumin (BSA), 5 mM MgCl2, Trasylol (200,000 International Units), bacitracin (0.02 mg/mL) and phenylmethylsulfonylfluoride (0.02 mg/mL) for 25 min at 30° C. Using a filtration manifold, this mixture was filtered through a polyethyleneimine-washed GC/F filter (Whatman, Maidstone, England), and the residue remaining on the filter washed thrice with 5 mL cold HEPES buffer. The filter and a sample of the filter washings were then counted in a gamma counter. To assess non-specific binding, the assay was performed in the presence of unlabeled somatostatin-14 at 200 nM. Data analysis including Hill plots of the data provided inhibition constants (see Bylund & Yamamura, "Methods of receptor binding", in Methods in Neurotransmitter Receptor Analysis, Yamamura et al., eds., Raven Press: New York, 1990).

T1 sequence (P30680 whole entry): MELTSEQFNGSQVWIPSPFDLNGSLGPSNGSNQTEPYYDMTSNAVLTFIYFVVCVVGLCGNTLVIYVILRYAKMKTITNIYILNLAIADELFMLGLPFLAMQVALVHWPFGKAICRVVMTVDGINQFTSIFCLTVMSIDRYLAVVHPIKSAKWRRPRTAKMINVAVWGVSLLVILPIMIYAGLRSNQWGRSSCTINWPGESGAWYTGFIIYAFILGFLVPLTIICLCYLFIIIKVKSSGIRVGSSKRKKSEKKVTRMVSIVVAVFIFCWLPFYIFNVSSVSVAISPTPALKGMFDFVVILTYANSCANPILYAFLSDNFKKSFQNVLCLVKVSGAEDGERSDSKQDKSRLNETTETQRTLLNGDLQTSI

Compound	Ki [nM]
CC(=O)NCSC[C@H](NC(=O)CNC(=O)[C@H](CSCNC(C)=O)NC(=O)CSCC[C@@H]1NC(=O)[C@H](C(C)C)NC(=O)[C@H](CCCCN)NC(=O)[C@@H](Cc2c[nH]c3ccccc23)NC(=O)[C@H](Cc2ccc(O)cc2)NC(=O)[C@H](Cc2ccccc2)N(C)C1=O)C(N)=O [cyclo.(N-CH3)FYWD KV.Hcy(CH2 CO.CAcm GCAcm.amide)] (cyclo(KV[hCys](X13)[NMeF]Y[dW]))	0.79
CC(C)[C@@H]1NC(=O)[C@H](CCCCN)NC(=O)[C@@H](Cc2c[nH]c3ccccc23)NC(=O)[C@H](Cc2ccc(O)cc2)NC(=O)[C@H](Cc2ccccc2)N(C)C(=O)[C@H](CCSCC(=O)N[C@@H](CS)C(=O)NCC(=O)N[C@@H](CS)C(=O)O)NC1=O [cyclo.(N-CH3)FYWD KV.Hcy(CH2 CO.CGC)] (cyclo(KV[hCys](X5)[NMeF]Y[dW]))	1.8

The remaining compounds from weak to strong by Ki, led by results:

Ki [nM]	Compound
2.4	CC(C)[C@@H]1NC(=O)[C@H](CCCCN)NC(=O)[C@@H](Cc2c[nH]c3ccccc23)NC(=O)[C@H](Cc2ccc(O)cc2)NC(=O)[C@H](Cc2ccccc2)N(C)C(=O)[C@H](CCSCC(=O)NCC(=O)NCC(=O)N[C@@H](CS)C(N)=O)NC1=O [cyclo.(N-CH3)FYWD KV.Hcy(CH2 CO.GGC.amide)] (cyclo([NMeF]Y[dW]KV[hCys](X12)))
2	CC(C)[C@@H]1NC(=O)[C@H](CCCCN)NC(=O)[C@@H](Cc2c[nH]c3ccccc23)NC(=O)[C@H](Cc2ccc(O)cc2)NC(=O)[C@H](Cc2ccccc2)N(C)C(=O)[C@H](CCSCC(=O)NCCCC[C@H](N)C(=O)NCC(=O)N[C@@H](CS)C(N)=O)NC1=O [cyclo.(N-CH3)FYWD KV.Hcy(CH2 CO.(ε-K)GC.amide)] (cyclo([NMeF]Y[dW]KV[hCys](X7)))
1.5	CC(C)[C@@H]1NC(=O)[C@H](CCCCN)NC(=O)[C@@H](Cc2c[nH]c3ccccc23)NC(=O)[C@H](Cc2ccc(O)cc2)NC(=O)[C@H](Cc2ccccc2)N(C)C(=O)[C@H](CCSCC(=O)N[C@@H](CS)C(=O)NCC(=O)N[C@@H](CS)C(N)=O)NC1=O [cyclo.(N-CH3)FYWD KV.Hcy(CH2 CO.CGC.amide)] (cyclo([NMeF]Y[dW]KV[hCys](X6)))
0.65	CC(C)[C@@H]1NC(=O)[C@H](CCCCN)NC(=O)[C@@H](Cc2c[nH]c3ccccc23)NC(=O)[C@H](Cc2ccc(O)cc2)NC(=O)[C@H](Cc2ccccc2)N(C)C(=O)[C@H](CCSCC(=O)N[C@@H](CCCCN)C(=O)NCCCC[C@H](N)C(=O)NCC(=O)N[C@@H](CS)C(N)=O)NC1=O [cyclo.(N-CH3)FYWD KV.Hcy(CH2 CO.K(ε-K)GC.amide)] (cyclo([NMeF]Y[dW]KV[hCys](X11)))
